Data on four molecules can be found in patent publication US9856232B1, “Dihydropyrimidinone derivatives” (KING SAUD UNIVERSITY, priority 2017, dated 2018).

Marks after values point to notes of the source that are not given here.

Data set [1] relates to gastric mucosa of rats treated with 80% Ethanol. Kind of data set: Histopathological evaluation of gastric tissue. The data set is classed as in vivo, Albino Wistar rats. Particulars: 50 mg/kg; FIG. 15B-15F. As to the method:
Histopathological evaluation: Gastric tissue samples were fixed in neutral buffered formalin for 24 hours. Sections of gastric tissue were histopathologically examined to study the ulcerogenic and/or anti-ulcerogenic activity of compounds (N-3, N-8, N-11, and N-15). The tissues were fixed in 10% buffered formalin and processed using a VIP tissue processor. The processed tissues were embedded in paraffin blocks and sections about […] thick were cut using an American optical rotary microtome. These sections were stained with haematoxylin and eosin using routine procedures. The slides were examined microscopically for pathomorphological changes such as congestion, hemorrhage, edema, and erosions using an arbitrary scale for severity assessment of these changes (FIGS. 3-14).

For data set [2], the system named is gastric secretion in pylorus-ligated Shay rats. In words: Pylorus-ligated rats: gastric secretion, acidity and lesion index. The data set is classed as in vivo, Albino Wistar rats. More on the design: Ulcer Index, pylorus-ligated Shay rats: scale not given here. Particulars: i.p., 6 h after pylorus ligation, mean ± SE. As to the method:
(§1) Albino Wistar rats of either sex, approximately the same age, weighing 150 to 200 g and fed on a diet of standard chow were used in this study. They were randomly divided into experimental groups of six rats each. Compounds (N-1 to N-18) 12.5, 25, and 50 mg/kg were given orally in the anti-ulcer studies and intraperitoneally for gastric secretion evaluation. The rats were sacrificed, and the stomachs removed and opened along the greater curvature, After washing with saline, the gastric lesions were quantified by a person unaware of the treatments. The animal study protocol was approved by the Research and Ethics Committee of the Experimental Animal Care Society, College of Pharmacy, King Saud University, Riyadh, Saudi Arabia.
Pylorus-ligated rats: Rats were fasted for 36 hours with access to water ad libitum before pylorus ligation under ether anesthesia was carried out. Care was taken not to cause bleeding or to occlude blood vessels. Compounds (N-3, N-8, N-11, and N-15) were administered intraperitoneally immediately after pylorus ligation. The rats were sacrificed at 6 hours after pylorus ligation. The stomachs were removed, the contents were collected, volumes measured, centrifuged and analyzed for tritratable acidity against […], NaOH at pH 7.0. Table 5 provides the effect of compounds on gastric secretion, acidity, and gastric lesion index in pylorus-ligated Shay rats (mean±SE).

Data set [3] relates to gastric mucosal non-protein sulfhydryls, induced by 80% ethanol. Kind of data set: Estimation of non-protein sulfhydryls (NP-SH). The data set is classed as in vivo, Albino Wistar rats. Particulars: stomach tissue, 80% ethanol-treated rats, mean ± SE. As to the method:
as §1
Estimation of non-protein sulfhydryls (NP_SH): Gastric mucosal non-protein sulfhydryls were measured according to the method. The glandular part of the stomach was homogenized in ice-cold 0.02 mmol/L ethylenediaminetetraacetic acid (EDTA). Aliquots of 5 mL of the homogenates were mixed in 15 mL test tubes with 4 mL of distilled water and 1 mL of 50% trichloroacetic acid (TCA). The tubes were shaken intermittently for 10 minutes and centrifuged at 3000 r/min. Two milliliters of supernatant were mixed with 4 mL of 0.4 mol/L Tris buffer at pH 8.9. Then 0.1 ML of 5, 5′-dithio-bis (2-nitrobenzoic acid) (DTNB) was added and the sample was shaken. The absorbance was measured within 5 minutes of DTNB addition at 412 nm against a reagent blank.

In data set [4] the test system is gastric wall mucus in stomach tissue, change induced by 80% ethanol. Kind of data set: Determination of gastric wall mucus (GWM). In kind it is in vivo, Albino Wistar rats. Particulars: i.p, 80% ethanol-treated rats, mean ± SE. As to the method:
as §1
Determination of gastric wall mucus (GWM): Gastric wall mucus was determined according to the modified procedure. The glandular segment of the stomach was separated from the rumen of the stomach, weighed, and transferred immediately to 10 mL of 0.1% w/v Alcian blue solution (in […] sucrose solution buffered with […] sodium acetate at pH 5. Tissue was stained for 2 hours in Alcian blue, and excess dye was removed by two successive rinses with 10 mL of […] sucrose, firstly after 15 minutes and then after 45 minutes. Dye complexed with the gastric wall mucus was extracted with 10 ml of […] magnesium chloride which was intermittently shaken for 1 minute at 30 minute intervals for 2 hours. Four milliliters of blue extract were then vigorously shaken with an equal volume of diethyl ether. The resulting emulsion was centrifuged at 4000 r/min for 10 minutes and the absorbance of the aqueous layer was recorded at 580 nm. The quantity of Alcian blue extracted per gram of wet glandular tissue was then calculated. Table 6 provides the effect of compounds on the change in gastric wall mucus in stomach tissue induced by 80% ethanol (mean±SE).

Consider `COc1ccccc1C1NC(=O)NC=C1C(=O)c1ccc(N2CCCCC2)cc1` (centres unmarked) [Compound N-8, 4-(2-Methoxyphenyl)-5-[4-(piperidin-1-yl)benzoyl]-3,4-dihydropyrimidin-2(1H)-one], for which the “Gastric section, effect on gastric mucosa (histology)” value (“Gastric section, effect … (histology)” below) in data set [1] is on record as “intact normal mucosa”. For the same molecule, the “Titratable Acidity” value is reported as 161.11 ± 4.36 mEg/L in data set [2] (12.5 mg/kg), 133.33 ± 3.22 mEg/L in data set [2] (25 mg/kg) and 115.00 ± 5.75 mEg/L in data set [2] (50 mg/kg). Besides, the “Ulcer Index, pylorus-ligated Shay rats” value in data set [2] (12.5 mg/kg) stood at 3.16 ± 0.30; in data set [2] (25 mg/kg) it was 2.50 ± 0.22; in data set [2] (50 mg/kg) it was 2.00 ± 0.13. The entries for the “Volume of Gastric Content” value in data set [2] (12.5 mg/kg), in data set [2] (25 mg/kg) and in data set [2] (50 mg/kg) were 10.50 ± 0.34 mL, 9.36 ± 1.22 mL and 6.46 ± 0.16 mL, respectively. Further, the NP-SH is listed as 3.49 ± 0.16^b nmol/g in data set [3] (dose 12.5), 3.61 ± 0.12^b nmol/g in data set [3] (dose 25) and 4.61 ± 0.27**^b nmol/g in data set [3] (dose 50). Also, the results for the “Gastric Wall Mucus” value in data set [4] (12.5 mg/kg), in data set [4] (25 mg/kg) and in data set [4] (50 mg/kg) were 206.39 ± 7.18^b μg/g, 212.00 ± 6.40^b μg/g and 244.65 ± 5.36**^b μg/g, respectively.
The molecule `CN(C)c1ccc(C2NC(=O)NC=C2C(=O)c2ccc(N3CCCCC3)cc2)cc1` (centres unmarked) [Compound N-11, 4-(4-Dimethylaminophenyl)-5-[4-(piperidin-1-yl)benzoyl]-3,4-dihydropyrimidin-2(1H)-one] returned a melting point of 185 to 187 °C. Besides, the “Gastric section, effect … (histology)” value in data set [1] is reported as “intact normal mucosa”. For the same molecule, in data set [2] (12.5 mg/kg), the “Titratable Acidity” value is recorded as 160.55 ± 3.48 mEg/L; the “Ulcer Index, pylorus-ligated Shay rats” value is 2.83 ± 0.30; the “Volume of Gastric Content” value stood at 10.20 ± 0.29 mL. Further, in data set [2] (25 mg/kg), the “Titratable Acidity” value came out at 141.11 ± 6.30 mEg/L; the “Ulcer Index, pylorus-ligated Shay rats” value is listed as 2.50 ± 0.42; the “Volume of Gastric Content” value worked out at 7.35 ± 0.19 mL. Also, in data set [2] (50 mg/kg), the “Titratable Acidity” value was found to be 116.66 ± 4.63 mEg/L; the “Ulcer Index, pylorus-ligated Shay rats” value is recorded as 2.33 ± 0.71; the “Volume of Gastric Content” value was 6.63 ± 0.21 mL. For the same molecule, the NP-SH in data set [3] (dose 12.5) was 2.93 ± 0.11^b nmol/g. Moreover, the NP-SH in data set [3] (dose 25) is given as 3.40 ± 0.18^b nmol/g. In data set [3] (dose 50), the NP-SH is 4.35 ± 0.11***^b nmol/g. Moreover, the “Gastric Wall Mucus” value in data set [4] (12.5 mg/kg) is listed as 192.87 ± 12.84^b μg/g. Also, in data set [4] (25 mg/kg), the “Gastric Wall Mucus” value is 224.88 ± 4.64*^b μg/g. Moreover, in data set [4] (50 mg/kg), the “Gastric Wall Mucus” value was 217.36 ± 3.31**^b μg/g.
Turning to `COc1ccc(C2NC(=O)NC=C2C(=O)c2ccc(N3CCCCC3)cc2)c(OC)c1OC` (centres unmarked) [Compound N-15, 4-(2,3,4-Trimethoxyphenyl)-5-[4-(piperidin-1-yl)benzoyl]-3,4-dihydropyrimidin-2(1H)-one], in data set [1], the “Gastric section, effect … (histology)” value is on record as “intact normal mucosa”. The “Titratable Acidity” value in data set [2] (12.5 mg/kg) amounted to 116.11 ± 2.64 mEg/L; in data set [2] (25 mg/kg), 86.11 ± 3.98 mEg/L; in data set [2] (50 mg/kg), 73.33 ± 2.43 mEg/L. Besides, the “Ulcer Index, pylorus-ligated Shay rats” value worked out at 1.83 ± 0.304 in data set [2] (12.5 mg/kg), 1.50 ± 0.22 in data set [2] (25 mg/kg) and 1.00 ± 0.36 in data set [2] (50 mg/kg). Besides, the “Volume of Gastric Content” value in data set [2] (12.5 mg/kg) came out at 6.68 ± 0.18 mL; in data set [2] (25 mg/kg), 5.50 ± 0.24 mL; in data set [2] (50 mg/kg) it was 4.76 ± 0.23 mL. Also, the NP-SH in data set [3] (dose 12.5) was 3.38 ± 0.07^b nmol/g; in data set [3] (dose 25) it was 4.29 ± 0.24**^b nmol/g; in data set [3] (dose 50), 4.92 ± 0.30***^b nmol/g. Further, the entries for the “Gastric Wall Mucus” value in data set [4] (12.5 mg/kg), in data set [4] (25 mg/kg) and in data set [4] (50 mg/kg) were 231.78 ± 4.77*^b μg/g, 248.09 ± 7.69**^b μg/g and 275.32 ± 5.37***^b μg/g, respectively.
On to `O=C1NC=C(C(=O)c2ccc(N3CCCCC3)cc2)C(c2ccc([N+](=O)[O-])cc2)N1` (centres unmarked) [Compound N-3, 4-(4-Nitrophenyl)-5-[4-(piperidin-1-yl)benzoyl]-3,4-dihyropyrimidin-2(1H)-one], for which the “Gastric section, effect … (histology)” value in data set [1] was “intact mucosa with mild ulceration”. Also, the “Titratable Acidity” value is on record as 153.88 ± 5.40 mEg/L in data set [2] (12.5 mg/kg), 97.77 ± 2.93 mEg/L in data set [2] (25 mg/kg) and 84.84 ± 2.38 mEg/L in data set [2] (50 mg/kg). The “Ulcer Index, pylorus-ligated Shay rats” value in data set [2] (12.5 mg/kg) is 2.33 ± 0.33; in data set [2] (25 mg/kg), 1.83 ± 0.304; in data set [2] (50 mg/kg), 1.16 ± 0.30. The figures for the “Volume of Gastric Content” value in data set [2] (12.5 mg/kg), in data set [2] (25 mg/kg) and in data set [2] (50 mg/kg) were 9.03 ± 0.24 mL, 6.31 ± 0.25 mL and 4.63 ± 0.22 mL, respectively. The results for the NP-SH in data set [3] (dose 12.5), in data set [3] (dose 25) and in data set [3] (dose 50) were 3.15 ± 0.20^b nmol/g, 4.23 ± 0.23**^b nmol/g and 4.56 ± 0.17***^b nmol/g, respectively. In addition, the “Gastric Wall Mucus” value in data set [4] (12.5 mg/kg) is 242.08 ± 4.03*^b μg/g; in data set [4] (25 mg/kg), 241.66 ± 6.91**^b μg/g; in data set [4] (50 mg/kg) it was 256.18 ± 8.39***^b μg/g.
